In data set [1] the target is T1, 1-alpha, 25-Vitamin D hydroxylase (Homo sapiens, UniProt O15528).
T1 sequence (O15528 1-508): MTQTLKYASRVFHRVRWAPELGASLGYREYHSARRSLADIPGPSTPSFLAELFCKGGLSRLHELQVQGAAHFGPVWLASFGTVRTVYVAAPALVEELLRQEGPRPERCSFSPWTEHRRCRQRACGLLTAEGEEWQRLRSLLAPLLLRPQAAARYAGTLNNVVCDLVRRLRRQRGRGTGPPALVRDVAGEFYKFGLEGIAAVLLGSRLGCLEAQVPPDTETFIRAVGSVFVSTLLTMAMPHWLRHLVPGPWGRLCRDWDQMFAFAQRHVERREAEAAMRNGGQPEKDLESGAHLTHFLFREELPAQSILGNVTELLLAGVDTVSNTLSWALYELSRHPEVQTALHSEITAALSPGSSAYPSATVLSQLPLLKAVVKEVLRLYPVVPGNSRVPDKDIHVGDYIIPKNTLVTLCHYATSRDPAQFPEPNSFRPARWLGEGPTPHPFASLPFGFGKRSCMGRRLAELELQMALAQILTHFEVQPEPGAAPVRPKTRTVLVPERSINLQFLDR
Particulars: human vascular smooth muscle; cited from earlier work.

Data set [2] has as its system Mouse C2C12 skeletal muscle cell myoblasts fused into myotubes. Kind of data set: Protein degradation and synthesis by leucine isotope release/disappearance in C2C12 myotubes with dexamethasone. The settings on record: 24 h, dexamethasone 100 nM. The format is cell-based. As to the method:
Mouse C2C12 skeletal muscle cell myoblasts were grown in culture under standard conditions and fused into myotubes following the methods of Menconi et al. (95). Four separate studies were conducted during different weeks. The first 3 studies consisted of 4 replicate dishes per treatment and the fourth study consisted of 6 replicate dishes per treatment. The treatments were applied to the cells during the 24 h measurement period. Treatments applied were control, 25OH-VitD3 (200 ng/mL), HMB (200 μM HMB as Ca(HMB)2, and the combination of HMB and 25OH-VitD3. Dexamethasone (100 nM) was added to the culture medium during the treatment/measurement period to stimulate protein degradation. Calcium in the form of calcium chloride was added to the control and 25OH-VitD3 treatments so that all the treatments were balanced for calcium. For measurement of protein degradation during the treatment period, leucine free medium was obtained to which [5,5,5]^2H3-leucine was added so that the isotopes of leucine (natural leucine and [1-^13C]-leucine) could be measured as they were released into the medium through the protein degradation process. The measurement medium was sampled at 2 and 24 h and samples stored at −80° C. until analyzed. The samples were analyzed for leucine using a gas chromatography (model 6890, Hewlett Packard, Palo, Calif.) mass spectrometry (model 5973, Hewlett Packard, Palo, Calif.) and the gas chromatography column used for the analysis was a Zebron ZB-5. (Phenomenex, Torrence, Calif.). Natural leucine, [1-^13C]-leucine, and [5,5,5^2H3]-leucine were monitored at 302, 303, and 305 AMU, respectively. Corrections for sampling at 2 h and for leucine utilization from the measurement media were made. […] Concentrations of proteins were analyzed following the microplate assay instructions using a Pierce BCA protein assay kit (Thermo Scientific, Rockford, Ill.). DNA was measured flourometrically using the Quant-iT™ dsDNA assay kit from Invitrogen (Carlsbad, Calif.). […]

The nature of data set [3]: 12-week HMB / Vitamin D study, knee extension strength (BIODEX peak torque). The format is in vivo, human. The settings on record: older adults, 8 weeks. An excerpt:
(§1) Prior to the start of the experimental period, we randomly assigned nutritional supplements to each subject using computer-generated random numbers in a double-blind fashion. Treatments were arranged in a 2×2 factorial design with two levels of HMB (0 & 3.0 g/d) and two levels of Vitamin D (0 & 2,000 IU/d). We assigned subjects to one of the following four treatments:
The exercise testing and training session was supervised by trained research associates. Resting heart rate and blood pressure measurements were obtained prior to strength measurements. Enrolled individuals participated in an exercise training program consisting of strength training exercises with Theraband® stretch cords (resistance training) and jumping. The equipment consisted of items that can easily be used at home. Exercise sessions were 3 times a week for 12 weeks. Each exercise session was about 45-60 minutes. […]
Body composition measurements were obtained at 0, 4, 8, and 12 weeks. […] Handgrip strength was measured using a handgrip dynamometer. Peak torque for knee extension and flexion was measured at 60, 90 and 120°/sec. Peak torque for elbow extension and flexion was measured at 60 and 120°/sec.
(§2) Least Squares Mean±SEM were calculated strength and functionality changes in each variable over the 12-week period. […] Statistical significance was determined for p<0.05 and a trend was determined for 0.05<p<0.10.

Data set [4] can be described thus: 12-week HMB / Vitamin D study, muscular performance index. The settings on record: eight week performance index, older adults. The format is in vivo, human.
Excerpt: as §1
Functionality tests included: “Get-up-and-Go” performance (speed and gate), and “Get-up” performance. The “Get-up-and-Go” test consisted of timed measurements of the subject's starting from a seated position, standing, walking forward 3 meters, turning around, walking back to the chair, and sitting down. […] The complete descriptions and standardization of the tests are outlined in the Physical Dimensions of Aging by Waneen W. Spirduso (Human Kinetics, 1995).
A muscular performance index was calculated by summing the percentage change from baseline for Get-up-and-Go, Get-up, handgrip, peak torque for knee extension and flexion (60, 90 and 120°/sec) and peak torque for elbow extension and flexion (60°/sec).
as §2

For data set [5] the following is noted: after HMB is fed; cited from earlier work.
Data set [6] in a line: 12-week 2x2 HMB / Vitamin D study in older adults with exercise training, serum 25OH-VitD3. The format is in vivo, human. Particulars: control or HMB alone, no Vitamin D supplement.
Excerpt: Elderly women (n=30) and men (n=16) were recruited into a double-blinded controlled study. The older adults were recruited from two locations in South Dakota: Brookings and Sioux Falls. The subjects underwent an initial screening and were randomized to treatments. Testing consisted of an initial (0 weeks) and follow-up testing at 4, 8 and 12 weeks over the course of the 12-week study.
as §1
The treatments were supplied in capsules of equal size and color and contained equal amounts of calcium and phosphorus. The subjects were instructed to take three capsules two times a day. Each subject was supplied with a one-week supply of the supplement, allocated by subject number and returned each week for an additional 1-week supply. […]
as §2

A short description of data set [7]: 12-week HMB / Vitamin D study, urinary HMB concentration (supplement compliance). The format is in vivo, human. The settings on record: clean catch urine sample, HMB 3.0 g/day. The protocol:
The average 25OH-VitD3 concentration at wk 0 was 26.5 ng/ml. […] However, subjects either supplemented with a control or HMB alone decreased their serum 25OH-VitD3 level by 2.0 ng/mL. A clean catch urine sample was used to test for supplement compliance.

With `C=C1CC[C@H](O)C/C1=C/C=C1\CCC[C@]2(C)[C@@H]([C@H](C)CCCC(C)(C)O)CC[C@@H]12` [25OH-VitD3], in data set [1], the Km (as a rule, the substrate concentration at which the rate is half of its maximum) is 25 ng/mL.
Turning to `C=C1CC[C@H](O)C/C1=C/C=C1\CCC[C@]2(C)[C@@H]([C@H](C)CCCC(C)C)CC[C@@H]12` [Vitamin D, cholecalciferol], the “dexamethasone stimulated protein degradation” value in data set [2] is given as “tended to decrease dexamethasone stimulated protein degradation in only the faster turnover protein pool”. The “knee extension strength compared to control-treated subjects” value in data set [3] was “Neither the HMB alone nor the Vitamin D-treated subjects increased knee extension strength”. Besides, the “increase in the performance index over the control” value in data set [4] came out at 58%.
For the compound β-hydroxy-β-methylbutyrate [HMB], the “loss of HMB to urine” value in data set [5] was 20-50%. Also, in data set [2] (HMB 200 μM), the “decrease in protein degradation measured by [1-13C]-leucine” value stood at 6.3% and the “decrease in protein degradation measured by natural leucine” value is given as 7.6%. For the same compound, in data set [6], the “decrease in serum 25OH-VitD3 level” value is given as 2.0 ng/mL. The “increase in urinary HMB concentration” value in data set [7] was found to be 50 fold. Also, the “knee extension strength compared to control-treated subjects” value in data set [3] is “Neither the HMB alone nor the Vitamin D-treated subjects increased knee extension strength”. Further, the “increase in the performance index over the control” value in data set [4] stood at 35%.

Source of the values: patent publication US11173167B2, “Nutritional intervention for improving muscular function and strength” (Metabolic Technologies, Inc., priority 2008, dated 2021).
